Source: PubChem BioAssay AID1996
In brackets after ≈: the same amount, converted by molar mass.

details: buffer; pH 7.4; 200.0 µM

Structure (SMILES)	solubility kinetic [µg/mL]
COC(=O)c1cc(OC)c(OC)cc1N1C(=O)CC(C)(C)CC1=O	> 50.3
Cc1cccc(CSc2nc3ccccc3c(=O)n2C)c1	1.2 (≈ 4.05 µM)
O=C(OCC(=O)N1CCc2ccccc21)c1ccncc1	33.1 (≈ 117 µM)
COC(=O)c1ccccc1NC(=O)COC(=O)/C=C/c1cccs1	1.8 (≈ 5.21 µM)
O=C(N[C@@H](Cc1c[nH]c2ccccc12)C(=O)O)c1ccc(Cl)cc1	> 51.4
CCCn1c(=O)[nH]c(=O)c2[nH]cnc21	> 29.1
COC(=O)c1ccc(NC(=S)NC(=O)C2CCC2)cc1	4.9 (≈ 16.8 µM)
COC(=O)c1sccc1NC(=O)CSCCc1ccccn1	> 50.5
COc1ccc2c(c1)C=C(CN1CCN(C(C)C)C(CCO)C1)CO2 (stereo not given)	34.5 (≈ 99.6 µM)
CC(C)[C@H](N[C@@H](C)c1ccccc1)c1c(O)ccc2ccccc12	2.2 (≈ 6.89 µM)
CCC(C)[C@H](NC(=O)NCc1ccc(OC)c(OC)c1)C(=O)O (stereo not given in full)	39.9 (≈ 123 µM)
COc1ccc(N2CCN(C(=O)c3cc4ccccc4o3)CC2)cc1	< 0.4
O=C(NNC(=O)C1CCC1)c1ccccc1	> 32.7
c1cnc(N2CCN(c3ccc4ccccc4n3)CC2)nc1	1.3 (≈ 4.46 µM)
CC1CCCC(NC(=O)CN2C(=O)NC(C)(c3cc(F)ccc3F)C2=O)C1C (stereo not given)	> 59
CCN1CCN(S(=O)(=O)Cc2ccccc2Cl)CC1	> 45.4
O=C(NC1CCS(=O)(=O)C1)c1cccs1 (stereo not given)	> 36.8
COc1ccc(S(=O)(=O)N2c3ccc(F)cc3CCC2C)cc1 (stereo not given)	3.2 (≈ 9.54 µM)
O=C(NCCc1ccccc1)c1ccc(Cl)c(S(=O)(=O)N2CCOCC2)c1	9.3 (≈ 22.7 µM)
C=CCn1c(NC(=O)c2ccco2)nc2ccccc21	21.2 (≈ 79.3 µM)

Structure (SMILES)	solubility kinetic [µg/mL]
COc1ccc(C(=O)NC2CCN(C(=O)Nc3ccc(F)cc3)CC2)cc1	0.9 (≈ 2.42 µM)
Cc1cccc(C(=O)OCC(=O)N2CCCCCC2)c1O	36 (≈ 124 µM)
Cc1cccc(C(=O)OCC(=O)c2csc(N3CCCCC3)n2)c1[N+](=O)[O-]	2.8 (≈ 7.19 µM)
CC1(C)Nc2ccccc2C(=O)N1c1ccc(Br)cc1	12.1 (≈ 36.5 µM)
O=C(O)c1nn(-c2ccccc2C(F)(F)F)cc1O	> 40.8
CN(C)c1ccc(Nc2nc(N)c3ccccc3n2)cc1.Cl	> 47.4
O=c1[nH]c(O)c(C=Nc2ccccc2Oc2ccccc2)c(=O)[nH]1	0.8 (≈ 2.47 µM)
O=C(O)C1C2C=CC(C2)C1C(=O)Nc1cccc(Cl)c1 (stereo not given)	42.8 (≈ 147 µM)
CCC(=O)Nc1cc(C(=O)O)ccc1Sc1ccc(Cl)cc1	> 50.4
CC(C)CCNCC(O)CON=C1c2ccccc2-c2ccccc21 (stereo not given)	47.4 (≈ 140 µM)
CC(C)c1ccc(N=C(N)N=C(N)N)cc1.Cl	> 38.4
O=C(Cn1c(=O)[nH]c2ccccc2c1=O)Nc1cccnc1	> 44.4
Cc1cccc(OCC(=O)NC2CCCCCC2)c1C	< 0.6
CCn1c(NC(=O)C(C)C)c2ccccc2nc1=O	> 38.9
O=C(c1ccncc1)N1CCN(CCc2ccccc2)CC1	> 44.3
CCOc1cc(N2CCOCC2)c(OCC)cc1NC(=O)c1cc(S(=O)(=O)N2CCOCC2)ccc1F	6.5 (≈ 12.1 µM)
O=C(Nc1ccccc1)N1CCCN(c2nccc(C(F)(F)F)n2)CC1	1.7 (≈ 4.65 µM)
Cn1c(=O)c2c(ncn2CCC(=O)N/N=C/c2cccnc2)n(C)c1=O	> 53.3
Cc1ccc(NS(=O)(=O)c2ccc(-c3csc(C)n3)s2)c(C)c1	< 0.4
CCN(CC)C(=S)SC1CCCCN(C(=O)c2ccc(F)cc2)C1=O (stereo not given)	5.2 (≈ 13.6 µM)

Structure (SMILES)	solubility kinetic [µg/mL]
CCCCCCCNC(=O)c1cc(-c2ccncc2)nc2ccccc12	0.8 (≈ 2.3 µM)
Cc1cc(Br)ccc1NC(=O)CSCc1c(C)noc1C	30.1 (≈ 81.5 µM)
CC1CCN(C(=S)NC(=O)c2ccco2)CC1	> 37.8
O=C(CC1CCCCC1)NCc1ccccc1Cl	2.9 (≈ 10.9 µM)
COC(=O)C1CN(C(=O)COc2ccccc2C)c2ccccc2O1 (stereo not given)	48.8 (≈ 143 µM)
CCc1cccc2c(=O)c(C(=O)NCCCOC)c[nH]c12	> 43.3
C(=N\NC1=NCCN1)/c1ccncc1.Cl	> 39.3
Cn1ccnc1C(OC(=O)c1ccccc1)C(F)(F)F (stereo not given)	> 42.6
O=C(NC1CCCCC1)C1CCCN1C(=O)Nc1ccccc1 (stereo not given)	> 47.3
Cc1cccc(/C=N/NC(=O)c2cc(C)nc3ccccc23)n1	> 45.7
Cc1cc(Nc2ccc(Cl)cc2)nc(N2CCOCC2)n1	1.8 (≈ 5.91 µM)
CCOC(=O)/C(=C/Nc1ccc(F)c(F)c1)[N+](=O)[O-]	> 40.8
O=C(c1ccccc1)c1ccc(OCC(=O)N2CCOCC2)cc1	> 48.8
N#Cc1c(N2CCOCC2)nsc1-c1ccc(C(F)(F)F)cc1	< 0.2
CCN1CCC(N2CCN(c3ccc(F)cc3)CC2)CC1	35.5 (≈ 122 µM)
Cc1ccc(NC(=O)c2cnc3ccccc3n2)cc1C	0.3 (≈ 1.08 µM)
CCS(=O)c1scc(-c2ccc(Cl)cc2)c1C#N (stereo not given)	20.9 (≈ 70.7 µM)
CCCCCCCCC1CC(C(=O)Nc2ccccc2)C(=O)O1 (stereo not given)	< 0.7
COc1ccc(CC(=O)NC2CCSc3ccccc32)cc1OC (stereo not given)	0.7 (≈ 2.04 µM)
CC1CCC(NS(=O)(=O)c2ccc(Cl)nc2)CC1 (stereo not given)	33.9 (≈ 117 µM)
